Results as given in patent publication US4283420A, “Pharmaceutically active cyclohexyl compounds and their preparation” (Labaz, priority 1978, dated 1981).

What was measured:
male OFl mice = experiment: Pentetrazole seizure (mortality after i.p. pentetrazole 125 mg/kg); format: in vivo; conditions: Mus musculus, po, 0.25 h; Table IV; mice, measured 15 minutes after peroral treatment; read-out: Pentetrazole seizure, ED50
Experimental: This test was carried out on batches of 10 male OFl mice which had fasted since the day before and were placed in individual cages, in accordance with the method of Cheymol (J.) Acta. Pharmacol., (1950), 2, 1-55.
The treatments were carried out perorally 15 minutes before intraperitoneal (i.p.) injection of a solution of pentetrazole (125 mg/kg).
The mortality is recorded 3 hours after this injection.
It is to be noted that the 50% effective doses (ED50), where these have been determined, were calculated by the method of MOOD (J. Am. Statist. Assoc., (1965), 60, 967-78).

male Swiss mice = experiment: Maximum electrical seizure; format: in vivo; conditions: Mus musculus, po, 0.25 h; mice, measured 15 minutes after peroral treatment; read-out: Maximum electrical seizure, ED50
From the text: Maximum electrical seizure
The technique used is that recommended by GOODMAN (L. S.), SING-GREWALD (M.), BROWN (V. C.) and […] (E. A.), Am.
The animals tested are male Swiss mice grouped into batches of 10. The normal threshold of the electric shock which is capable of causing tonic extension of the front paws is first determined for each animal.

mouse = experiment: Ouabain seizure; format: in vivo; conditions: po, 0.25 h; ouabain 5 γ/mouse intra-ventricularly; measured 15 minutes after peroral treatment; read-out: Ouabain seizure, ED50
Experimental: Ouabain was administered intra-ventricularly at a dose of 5 γ/mouse in a volume of 0.02 ml.

mice [1] = experiment: β-Mercaptopropionic acid seizure; format: in vivo; conditions: Mus musculus, po, 0.25 h; β-mercaptopropionic acid 40 mg/kg i.p.; mice, 15 minutes after peroral treatment; read-out: β-Mercaptopropionic acid seizure, ED50
Experimental: β-Mercaptopropionic acid seizure
β-Mercaptopropionic acid is an inhibitor of glutamatedecarboxylase (GAD), which is an enzyme which catalyses the conversion of glutamate to γ-aminobutyric acid (GABA). Its action thus manifests itself in a lowering of the GABA level and the occurrence of general tonico-clonic seizures 3 to 4 minutes after it has been administered. β-Mercaptopropionic acid was administered to mice intraperitoneally at a dose of 40 mg/kg.

mice [2] = experiment: Anoxia as a result of confinement; format: in vivo; conditions: Mus musculus, ip; at 240 mg/kg, intraperitoneal, mice; read-out: Anoxia as a result of confinement, % increase in the survival time
Experimental: Anoxia as a result of confinement
Mice (in batches of 20) are placed in a 200 cm^3 hermetically sealed chamber (a wide-mouthed glass vessel) which is under normal pressure and has a normal content of atmospheric oxygen. All of the treatments are administered intraperitoneally immediately before introduction into the chamber. The animal is considered to be dead at the moment when breathing stops.
Since the wide-mouthed vessels chosen are very small, the motor activity of the animals is extremely low and this eliminates, in principle, the possibility of a positive result due to a sedative effect.
Therefore, the percentage increase in the survival time of the treated animals is noted, relative to the batch.

male mice = experiment: Sedative activity: Rotarod test; format: in vivo; conditions: at 700 mg/kg, peroral, mice
Experimental: This test is used for the purpose of assessing the ability of the animals to coordinate their movements. It uses a wooden cylinder which has a diameter of 4.8 cm and revolves at a speed of 4 revolutions/minute. The test is carried out on male mice weighing about 22 g. The products are administered perorally (p.o.) to batches of 10 animals per dose. The animals are placed on the apparatus 15 minutes after administration of the product. The percentage of mice which lose their equilibrium reflex, that is to say which become incapable of retaining their balance on the cylinder for a period of 2 minutes, is noted.
Using the regression straight line method, a 50% neurotoxic dose (NTD 50) is calculated, which thus expresses the average level of the first neuromuscular effects under the influence of the studied product.

Acute toxicity, peroral = conditions: mouse, in vivo, po, 1100 mg/kg
Experimental: In order to locate the boundary separating the pharmacological effects from the toxicity of the products, a very approximate assessment of the toxicity was carried out on mice (batches of 10 animals) after peroral treatment.

Work on `C=C(Cl)CC1(C(=O)O)CCCCC1` [Example 19] yielded an ED50 (male OFl mice) of 94 mg/kg, an ED50 (male Swiss mice) of 366 mg/kg and an ED50 (mouse) of 579 mg/kg. For the same compound, the ED50 (mice [1]) was 300 mg/kg, the ILS at 240 mg/kg (mice [2]) was 45% and the “Rotarod test, % of failures” value (male mice) was 30%. The mortality (Acute toxicity, peroral) was 10%.
